2 compounds from patent US8957078B2, “Compounds useful as inhibitors of ATR kinase” (Vertex Pharmaceuticals Incorporated, priority 2013, dated 2015) can be followed below.

Assay [1] has as its target T1, ATR kinase, in the presence of partner proteins ATRIP, CLK2 and TopBP1 (Homo sapiens, UniProt Q13535).
T1 construct: in the presence of 4 nM full-length ATR, 40 nM full-length ATRIP
The experiment in a line: ATR-Complex Inhibition Assay (radioactive-phosphate incorporation). The conditions noted are these: Ki(app); 4 nM full-length ATR, 40 nM ATRIP, 40 nM CLK2, 600 nM TopBP1(A891-S1105), 10 μM ATP, 25° C. It counts as biochemical. Here is the method:
Compounds were screened for their ability to inhibit ATR kinase, in the presence of partner proteins ATRIP, CLK2 and TopBP1, using a radioactive-phosphate incorporation assay. Assays were carried out in a mixture of 50 mM Tris/HCl (pH 7.5), 10 mM MgCl2 and 1 mM DTT. Final substrate concentrations were 10 μM [g-33P]ATP (3.5 μCi 33P ATP/nmol ATP, Perkin Elmer, Massachusetts, USA) and 800 μM target peptide (ASELPASQPQPFSAKKK (SEQ. ID NO: 1)), Isca Biochemicals, Cambridgeshire, UK).
Assays were carried out at 25° C. in the presence of 4 nM full-length ATR, 40 nM full-length ATRIP, 40 nM full-length CLK2 and 600 nM TopBP1(A891-S1105). An enzyme stock buffer solution was prepared containing all of the reagents listed above, with the exception of target peptide, ATP and the test compound of interest. This enzyme stock was pre-incubated for 30 minutes at 25° C. […]
After removing mean background values for all of the data points, Ki(app) data were calculated from non-linear regression analysis of the initial rate data using the Prism software package (GraphPad Prism version 6.0c for Macintosh, GraphPad Software Inc., San Diego, USA).

Assay [2] deals with T2, ATR kinase (full-length ATR) (Homo sapiens, UniProt Q13535).
T2 construct: in the presence of 5 nM full-length ATR
T2 sequence (Q13535 whole entry): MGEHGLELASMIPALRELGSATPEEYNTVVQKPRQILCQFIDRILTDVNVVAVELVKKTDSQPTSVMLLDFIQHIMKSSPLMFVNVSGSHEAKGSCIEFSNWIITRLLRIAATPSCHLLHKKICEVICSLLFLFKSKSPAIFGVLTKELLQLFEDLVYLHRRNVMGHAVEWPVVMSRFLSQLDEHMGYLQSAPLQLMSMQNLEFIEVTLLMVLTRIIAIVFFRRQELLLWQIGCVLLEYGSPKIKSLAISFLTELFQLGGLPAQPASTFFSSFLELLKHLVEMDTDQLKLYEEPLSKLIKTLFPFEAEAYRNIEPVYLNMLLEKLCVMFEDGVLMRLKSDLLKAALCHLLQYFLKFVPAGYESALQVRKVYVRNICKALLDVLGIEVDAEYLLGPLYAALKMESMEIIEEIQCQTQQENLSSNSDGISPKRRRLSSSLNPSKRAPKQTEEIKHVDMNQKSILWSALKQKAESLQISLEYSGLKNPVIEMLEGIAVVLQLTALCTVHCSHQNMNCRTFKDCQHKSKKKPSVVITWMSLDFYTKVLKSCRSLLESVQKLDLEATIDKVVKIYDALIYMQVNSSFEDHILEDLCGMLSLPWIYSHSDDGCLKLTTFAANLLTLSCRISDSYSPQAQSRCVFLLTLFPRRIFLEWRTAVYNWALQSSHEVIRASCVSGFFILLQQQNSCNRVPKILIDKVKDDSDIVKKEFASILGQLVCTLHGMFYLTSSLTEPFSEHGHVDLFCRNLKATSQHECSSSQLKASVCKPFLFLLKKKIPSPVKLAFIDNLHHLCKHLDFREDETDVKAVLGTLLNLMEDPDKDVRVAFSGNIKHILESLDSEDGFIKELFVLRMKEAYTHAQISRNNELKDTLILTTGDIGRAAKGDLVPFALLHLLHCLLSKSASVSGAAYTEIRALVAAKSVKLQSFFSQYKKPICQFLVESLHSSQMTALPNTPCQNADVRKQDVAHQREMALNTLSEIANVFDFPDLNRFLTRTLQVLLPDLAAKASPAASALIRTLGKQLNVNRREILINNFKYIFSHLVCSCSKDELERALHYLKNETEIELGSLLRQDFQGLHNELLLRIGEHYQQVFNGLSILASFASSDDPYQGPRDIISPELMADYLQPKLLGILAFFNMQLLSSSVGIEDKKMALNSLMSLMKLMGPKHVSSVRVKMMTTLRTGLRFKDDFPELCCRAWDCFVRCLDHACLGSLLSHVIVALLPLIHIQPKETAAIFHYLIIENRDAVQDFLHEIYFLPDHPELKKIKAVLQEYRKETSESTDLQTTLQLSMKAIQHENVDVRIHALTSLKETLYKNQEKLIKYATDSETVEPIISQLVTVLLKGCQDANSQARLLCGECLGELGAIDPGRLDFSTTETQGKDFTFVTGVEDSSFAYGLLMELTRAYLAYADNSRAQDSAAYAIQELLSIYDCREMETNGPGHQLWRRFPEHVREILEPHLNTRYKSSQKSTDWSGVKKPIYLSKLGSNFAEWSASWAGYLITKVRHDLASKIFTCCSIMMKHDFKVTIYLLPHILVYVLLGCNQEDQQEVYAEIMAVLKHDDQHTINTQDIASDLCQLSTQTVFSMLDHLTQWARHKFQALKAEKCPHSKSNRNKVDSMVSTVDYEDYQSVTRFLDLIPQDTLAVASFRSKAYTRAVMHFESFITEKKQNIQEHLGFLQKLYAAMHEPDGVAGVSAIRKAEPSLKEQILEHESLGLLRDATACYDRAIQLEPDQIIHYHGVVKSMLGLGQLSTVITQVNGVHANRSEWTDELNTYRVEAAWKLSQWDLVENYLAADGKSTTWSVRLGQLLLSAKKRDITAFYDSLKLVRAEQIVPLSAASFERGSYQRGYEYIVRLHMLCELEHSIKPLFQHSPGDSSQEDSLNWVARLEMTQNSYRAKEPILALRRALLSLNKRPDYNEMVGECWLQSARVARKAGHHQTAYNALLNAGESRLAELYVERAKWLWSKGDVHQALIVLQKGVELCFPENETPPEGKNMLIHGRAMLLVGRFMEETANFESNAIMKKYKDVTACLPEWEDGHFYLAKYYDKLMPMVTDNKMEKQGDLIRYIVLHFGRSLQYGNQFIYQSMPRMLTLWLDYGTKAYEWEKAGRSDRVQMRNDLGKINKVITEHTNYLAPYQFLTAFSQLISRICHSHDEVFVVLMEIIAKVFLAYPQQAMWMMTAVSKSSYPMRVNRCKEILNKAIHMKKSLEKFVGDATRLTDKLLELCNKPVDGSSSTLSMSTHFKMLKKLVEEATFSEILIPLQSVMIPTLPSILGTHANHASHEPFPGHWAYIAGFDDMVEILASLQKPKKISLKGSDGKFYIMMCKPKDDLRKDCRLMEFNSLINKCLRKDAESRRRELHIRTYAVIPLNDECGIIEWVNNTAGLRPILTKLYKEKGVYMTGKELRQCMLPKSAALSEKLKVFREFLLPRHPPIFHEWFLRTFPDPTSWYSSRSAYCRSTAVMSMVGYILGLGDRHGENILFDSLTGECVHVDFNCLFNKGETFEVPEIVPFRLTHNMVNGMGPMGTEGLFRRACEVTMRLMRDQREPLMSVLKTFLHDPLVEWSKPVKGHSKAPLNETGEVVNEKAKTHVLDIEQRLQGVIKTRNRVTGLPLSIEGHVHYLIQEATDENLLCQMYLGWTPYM
As to the kind of experiment: ATR Inhibition Assay (radioactive-phosphate incorporation). It counts as biochemical. The conditions noted are these: Ki(app); 5 nM full-length ATR, 10 μM ATP, 800 μM target peptide, 25° C.

The test system of assay [3] is HCT116 colorectal cancer cells. The experiment in a line: Cisplatin Sensitization Assay (96 h cell viability MTS). It counts as cell-based. The settings on record: concentration of compound required to reduce the IC50 of Cisplatin alone by at least 3-fold; HCT116, 96 h MTS. The procedure, abridged:
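HCT116 cells treated 96 h at 37 °C with compound and cisplatin together as a full matrix of 2-fold dilutions, each from 10 μM final top concentration. Viability by MTS, absorbance 490 nm. Value reported: compound concentration lowering cisplatin IC50 at least 3-fold.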

The structures appear in SMILES notation. pKi: −log10 of the molar value.

T1 sequence (Q13535 whole entry): as above
T1 sequence (Q8WXE1 whole entry partner): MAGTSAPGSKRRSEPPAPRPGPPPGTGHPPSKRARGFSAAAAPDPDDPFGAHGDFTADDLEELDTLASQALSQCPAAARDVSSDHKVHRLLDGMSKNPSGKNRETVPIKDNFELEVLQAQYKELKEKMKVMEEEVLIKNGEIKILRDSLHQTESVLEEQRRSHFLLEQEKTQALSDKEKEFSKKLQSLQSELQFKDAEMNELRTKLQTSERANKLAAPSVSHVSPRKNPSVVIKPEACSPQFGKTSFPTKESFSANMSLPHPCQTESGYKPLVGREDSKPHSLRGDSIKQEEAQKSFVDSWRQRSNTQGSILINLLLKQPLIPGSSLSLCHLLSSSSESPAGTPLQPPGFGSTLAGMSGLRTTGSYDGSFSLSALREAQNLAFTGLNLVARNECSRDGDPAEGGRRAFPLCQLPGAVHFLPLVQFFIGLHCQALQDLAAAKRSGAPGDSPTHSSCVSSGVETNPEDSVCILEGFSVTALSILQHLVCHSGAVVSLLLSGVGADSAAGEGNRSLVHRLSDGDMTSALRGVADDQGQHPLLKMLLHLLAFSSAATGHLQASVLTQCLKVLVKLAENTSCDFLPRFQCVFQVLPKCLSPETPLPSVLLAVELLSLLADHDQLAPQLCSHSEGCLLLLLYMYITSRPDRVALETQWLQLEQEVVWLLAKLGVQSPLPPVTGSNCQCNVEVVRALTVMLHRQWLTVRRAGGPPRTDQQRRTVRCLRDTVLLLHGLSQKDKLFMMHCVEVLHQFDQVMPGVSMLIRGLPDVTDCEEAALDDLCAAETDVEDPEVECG

Consider `Nc1nn2cc(F)cnc2c1C(=O)Nc1ccncc1N1CCN(C2COC2)CC1` [I-C-1, 2-amino-6-fluoro-N-(3-(4-(oxetan-3-yl)piperazin-1-yl)pyridin-4-yl)pyrazolo[1,5-a]pyrimidine-3-carboxamide], for which the pKi in assay [1] was more than 8.00; in assay [2], 6.00 to 8.00. Besides, in assay [3], the “Cisplatin Sensitization Assay” value is reported as “++ (Compounds with a Cisplatin sensitization value >0.02 μM but <0.2 μM are marked with “++.”)”.
The matching figures for `CN1CCN(C(=O)c2ccc(-c3cnncc3NC(=O)c3c(N)nn4cc(F)cnc34)cc2)CC1` [I-B-13, 2-amino-6-fluoro-N-(5-(4-(4-methylpiperazine-1-carbonyl)phenyl)pyridazin-4-yl)pyrazolo[1,5-a]pyrimidine-3-carboxamide]: more than 8.00, 6.00 to 8.00 and “++ (Compounds with a Cisplatin sensitization value >0.02 μM but <0.2 μM are marked with “++.”)”.

What is called pKi is −log10 of the Ki, conventionally taken in molar units.
